These results are taken from US5232684A, “Labelled resiniferatoxin, compositions thereof, and methods for using the same” (priority 1990, dated 1993).

Each structure is given as a SMILES string. Like-named read-outs stand apart in the source and are kept apart here.

For assay [1], the target named is T1, capsaicin receptor (rat Gasser ganglia) (Rattus norvegicus, UniProt O35433).
T1 construct: from tissue; host or cells: Gasser ganglia of female Sprague-Dawley rats
Briefly: biochemical. The class given is binding. To be noted: rat Gasser ganglia. As to the method:
(§1) Membrane preparations are obtained from the DRG and Gasser ganglia of female Sprague-Dawley rats (250-300 g); animals are sacrificed by decapitation under ether anesthesia, the ganglia removed and collected into ice-cold disrupting buffer (5 mM KCl, 5.8 mM NaCl, 2 mM MgCl2, 12 mM glucose, 137 mM sucrose, 10 mM HEPES, 5 mM DTT, 2 mM EGTA, pH 7.4). After homogenization with the aid of a Polytron tissue homogenizer, samples are filtered over surgical gauze and then washed twice with the same buffer and stored at -70° C. Particulate fractions are obtained from other rat neural tissues (cerebellum, spinal cord, preoptic region, striatum, substantia nigra) and from DRG of pigs (Mt. Airy Locker Co., Mt. Airy, MD), sheep, cows (kindly provided by Dr. Solomon, USDA, Beltsville, MD), and chickens (Truslow Farms, Chesterton, MD) by a similar procedure.
(§2) The binding assays are carried out in a volume of 250 ul, containing assay buffer (same as the disrupting buffer but omitting DTT and EGTA and including 0.75 mM CaCl2), 26-30 ug of membrane protein and 0.25 mg/ml bovine serum albumin. […] Tubes are kept on ice while the additions are made. The assay mixture is incubated for 10 min at 37° C.; it is then cooled on ice. 150 ul of the mixture is pipetted onto Whatman GF/C or GF/F glass fiber filters presoaked with 10 mg/ml bovine serum albumin in 20 mM Tris-Cl (pH 7.4) and filtered immediately. An aliquot of 50 ul of the mixture is removed to determine total radioactivity. The filters are washed with 100 ml of ice-cold 20 mM Tris-Cl, pH 7 4, containing 0.1 mg/ml bovine serum albumin, and the bound radioactivity is determined by scintillation counting. Non-specific binding is determined in the presence of 100-1000 nM non-radioactive RTX.
(§3) Binding data from saturation experiments using increasing concentrations of hot ligand are analyzed using the collection of computer programs described by McPherson (McPherson, G.A., Analysis of radioligand binding experiments: a collection of computer programs for the IBM PC, J.Pharmacol.Methods, 14 (1985) 213-228).
(§4) Scatchard and Hill transformations are performed by the Equilibrium Binding Data Analysis program referred to as EBDA. Data are further analyzed by the curvilinear regression program LIGAND (Munson, R.J. and Rodbard, D., LIGAND: a versatile computerized approach for characterization of ligand-binding systems, Anal.Biochem, 107 (1980) 220-239).
(§5) RTX binding is also analyzed in the presence of a fixed, low (60 pM or 300 pM) concentration of [^3 H]RTX and increasing concentrations of non-radioactive RTX or other ligand. […] The Ki value for RTX is calculated from the relationship Ki =ID50 -L; the Ki values for other ligands are calculated from the general form of the equation (Cheng, Y.C. and Prusoff, W.H., Relation between the inhibition constant (Ki) and the concentration of inhibitor which causes 50 per cent inhibition (I50) of an enzymatic reaction, Biochem. Pharmacol., 22 (1973) 3099-3108) Ki =IC50 /(1+L/Kd) where L=concentration of labelled ligand and Kd =dissociation constant of radioactive ligand as determined in the saturation experiments using variable concentrations of hot ligand. Comparison of the quality of fit using single and multiple site competition models is performed by the LIGAND program.
Gasser ganglia represents the […] homolog of the dorsal root ganglia.

Assay [2] concerns the target T2, capsaicin receptor (rat DRG membranes) (Rattus norvegicus, UniProt O35433).
T2 construct: membrane preparations from dorsal root ganglia (DRG) of female Sprague-Dawley rats; from tissue; host or cells: dorsal root ganglia of female Sprague-Dawley rats
Briefly: biochemical. The assay is classed as binding. As to the method: as §1, §2, §3, §4, §5
[^3 H]RTX binding is examined using membrane preparations from dorsal root ganglia (DRG) of female Sprague-Dawley rats.

Assay [3] concerns the target T3, capsaicin receptor (chicken DRG) (Gallus gallus, UniProt Q8QFN9).
T3 construct: homotetramer
T3 sequence (Q8QFN9 1-843): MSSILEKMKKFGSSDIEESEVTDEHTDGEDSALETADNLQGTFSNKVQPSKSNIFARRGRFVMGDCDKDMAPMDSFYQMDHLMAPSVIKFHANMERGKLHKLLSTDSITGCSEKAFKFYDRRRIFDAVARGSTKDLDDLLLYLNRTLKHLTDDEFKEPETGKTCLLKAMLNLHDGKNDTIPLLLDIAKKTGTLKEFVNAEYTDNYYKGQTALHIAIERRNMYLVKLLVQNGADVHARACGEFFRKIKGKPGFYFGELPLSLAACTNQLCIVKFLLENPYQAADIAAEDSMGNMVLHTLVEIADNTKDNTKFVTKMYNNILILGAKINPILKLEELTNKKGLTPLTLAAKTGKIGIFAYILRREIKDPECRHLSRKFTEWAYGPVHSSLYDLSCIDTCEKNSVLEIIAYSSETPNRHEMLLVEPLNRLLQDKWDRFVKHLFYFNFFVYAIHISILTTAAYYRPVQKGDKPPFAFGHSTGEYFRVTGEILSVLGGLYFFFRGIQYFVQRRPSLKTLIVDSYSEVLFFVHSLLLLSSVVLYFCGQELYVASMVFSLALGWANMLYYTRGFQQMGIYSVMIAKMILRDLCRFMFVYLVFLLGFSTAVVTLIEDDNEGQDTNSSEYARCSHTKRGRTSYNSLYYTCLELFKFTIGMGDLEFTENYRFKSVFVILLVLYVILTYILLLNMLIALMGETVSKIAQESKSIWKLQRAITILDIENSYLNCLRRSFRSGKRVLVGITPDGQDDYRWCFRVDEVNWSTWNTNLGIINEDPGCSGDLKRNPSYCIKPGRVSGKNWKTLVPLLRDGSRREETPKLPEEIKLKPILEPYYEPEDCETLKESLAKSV
Briefly: [^3H]RTX binding to chicken DRG membranes.

The test system of another assay is Sprague-Dawley rats. Briefly: Induction of ear edema in Sprague-Dawley rats. As to conditions: 2×10^-7 g/ear. The assay is classed as in vivo, rat. An excerpt:
[^3 H]RTX (37 Ci/mmol) is synthesized by esterification of resiniferonol 9,13,14-orthophenylacetate (Chemicals for Cancer Research, Inc., Chaska, MN) at the C20 position with [^3 H]homovanillic acid (Chemical Synthesis and Analysis Laboratory, NCI-FCRF, Frederick, MD). The labelled compound is purified on HPLC and cochromatographed with authentic RTX (Chemicals for Cancer Research, Inc., Chaska, MN). The biological activity of [^3 H]RTX is confirmed in 2 assays: induction of hypothermia in CD-1 mice (10^-5 g/kg s.c.) and induction of ear edema in Sprague-Dawley rats (2×10^-7 g/ear).

T1 sequence (O35433 whole entry): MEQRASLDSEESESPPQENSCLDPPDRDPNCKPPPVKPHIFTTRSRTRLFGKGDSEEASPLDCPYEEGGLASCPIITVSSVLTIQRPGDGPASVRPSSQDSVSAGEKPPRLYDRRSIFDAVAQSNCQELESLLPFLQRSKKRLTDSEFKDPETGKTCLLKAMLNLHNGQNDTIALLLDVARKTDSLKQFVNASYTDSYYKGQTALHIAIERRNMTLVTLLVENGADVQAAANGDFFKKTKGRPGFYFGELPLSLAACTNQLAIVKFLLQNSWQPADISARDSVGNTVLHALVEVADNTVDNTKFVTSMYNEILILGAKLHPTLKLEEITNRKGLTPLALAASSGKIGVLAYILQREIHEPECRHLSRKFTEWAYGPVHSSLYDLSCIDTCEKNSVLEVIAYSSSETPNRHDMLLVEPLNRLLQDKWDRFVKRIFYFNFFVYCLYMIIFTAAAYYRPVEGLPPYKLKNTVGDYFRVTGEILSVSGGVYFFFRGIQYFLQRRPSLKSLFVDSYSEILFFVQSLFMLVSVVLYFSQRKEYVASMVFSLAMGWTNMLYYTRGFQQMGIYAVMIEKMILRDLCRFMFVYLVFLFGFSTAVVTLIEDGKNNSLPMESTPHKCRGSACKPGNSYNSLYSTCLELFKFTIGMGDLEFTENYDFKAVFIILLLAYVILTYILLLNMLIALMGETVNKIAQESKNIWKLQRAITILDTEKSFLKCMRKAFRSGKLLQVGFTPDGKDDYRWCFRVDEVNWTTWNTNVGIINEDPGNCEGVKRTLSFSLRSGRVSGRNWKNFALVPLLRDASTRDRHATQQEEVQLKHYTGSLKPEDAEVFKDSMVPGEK
T2 sequence (O35433 whole entry): as above

In the case of `C=C(C)[C@]12C[C@@H](C)[C@@]34O[C@](Cc5ccccc5)(O[C@@H]1[C@@H]3C=C(COC(=O)Cc1ccc(O)c(OC)c1)C[C@]1(O)C(=O)C(C)=C[C@@H]41)O2` [[^3 H]RTX, [^3 H]resiniferatoxin], the Hill coefficient in assay [1] is reported as 0.87; in assay [2] (rat DRG membranes), 0.96. In assay [1] (3 separate experiments, LIGAND), the Bmax was determined as 90 fmol/mg. In addition, the Kd in assay [1] (3 separate experiments, LIGAND) was 0.13 nM; in assay [2] (rat DRG membranes, data cumulated from 3 separate determinations, read-out: Kd (Scatchard analysis)) it was 0.3 nM; in assay [2] (rat DRG membranes, one site model, final parameter estimate, read-out: Kd (curvilinear analysis, LIGAND)), 0.27 nM; in assay [2] (rat DRG, read-out: Kd (summary)), 0.27 nM. Further, in assay [2] (rat DRG), the “Bmax (summary)” value stood at 160 fmol/mg. Also, the “specific binding to the DRG membranes” value in assay [2] (rat DRG) is reported as “specific, saturable binding”. Besides, the “specific binding of the total at the Kd” value in assay [2] (rat DRG membranes, at the Kd) was “approximately 50%”. For the same compound, the “Bmax (Scatchard analysis)” value in assay [2] (rat DRG membranes, 3 separate determinations) is given as 150 fmol/mg protein. For the same compound, the “Bmax (curvilinear analysis, LIGAND)” value in assay [2] (rat DRG membranes, final parameter estimate) is reported as 160 fmol/mg protein. For the same compound, the “binding in DRG from chickens” value in assay [3] was “not detected”. The “biological activity: induction of ear edema” value in the assay with Sprague-Dawley rats was “confirmed”.
